From ChEMBL document CHEMBL3616440, “Non-basic azolotriazinone MCHR1 antagonists for the treatment of obesity: An empirical brain-exposures-driven candidate selection for in vivo efficacy studies” (Bioorg Med Chem Lett, 2015)

Columns and labels:
[1] = target: Melanin-concentrating hormone receptor 1 (Rattus norvegicus, UniProt P97639); test: Displacement of [125I][Phe13,Tyr19]-MCH from rat MCHR1 by scintillation counting analysis
[2] = target: T1, Melanin-concentrating hormone receptor 1 (Homo sapiens, UniProt Q99705); test: Displacement of [125I][Phe13,Tyr19]-MCH from human MCHR1 expressed in HEK293 cells by scintillation counting analysis; type: cell-based
T1 sequence (Q99705 whole entry): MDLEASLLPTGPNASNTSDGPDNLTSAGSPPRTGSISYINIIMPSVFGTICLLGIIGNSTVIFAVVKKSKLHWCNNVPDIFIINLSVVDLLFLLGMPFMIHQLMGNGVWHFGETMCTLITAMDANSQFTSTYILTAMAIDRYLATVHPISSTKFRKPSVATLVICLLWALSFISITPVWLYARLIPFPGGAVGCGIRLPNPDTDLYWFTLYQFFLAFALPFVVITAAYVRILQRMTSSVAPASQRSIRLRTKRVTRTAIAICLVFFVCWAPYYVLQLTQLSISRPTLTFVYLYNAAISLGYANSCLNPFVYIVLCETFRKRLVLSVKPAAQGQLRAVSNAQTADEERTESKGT

[3] = target: T2, Voltage-gated inwardly rectifying potassium channel KCNH2 (Homo sapiens, UniProt Q12809); test: Inhibition of human ERG by flux assay
T2 sequence (Q12809 whole entry): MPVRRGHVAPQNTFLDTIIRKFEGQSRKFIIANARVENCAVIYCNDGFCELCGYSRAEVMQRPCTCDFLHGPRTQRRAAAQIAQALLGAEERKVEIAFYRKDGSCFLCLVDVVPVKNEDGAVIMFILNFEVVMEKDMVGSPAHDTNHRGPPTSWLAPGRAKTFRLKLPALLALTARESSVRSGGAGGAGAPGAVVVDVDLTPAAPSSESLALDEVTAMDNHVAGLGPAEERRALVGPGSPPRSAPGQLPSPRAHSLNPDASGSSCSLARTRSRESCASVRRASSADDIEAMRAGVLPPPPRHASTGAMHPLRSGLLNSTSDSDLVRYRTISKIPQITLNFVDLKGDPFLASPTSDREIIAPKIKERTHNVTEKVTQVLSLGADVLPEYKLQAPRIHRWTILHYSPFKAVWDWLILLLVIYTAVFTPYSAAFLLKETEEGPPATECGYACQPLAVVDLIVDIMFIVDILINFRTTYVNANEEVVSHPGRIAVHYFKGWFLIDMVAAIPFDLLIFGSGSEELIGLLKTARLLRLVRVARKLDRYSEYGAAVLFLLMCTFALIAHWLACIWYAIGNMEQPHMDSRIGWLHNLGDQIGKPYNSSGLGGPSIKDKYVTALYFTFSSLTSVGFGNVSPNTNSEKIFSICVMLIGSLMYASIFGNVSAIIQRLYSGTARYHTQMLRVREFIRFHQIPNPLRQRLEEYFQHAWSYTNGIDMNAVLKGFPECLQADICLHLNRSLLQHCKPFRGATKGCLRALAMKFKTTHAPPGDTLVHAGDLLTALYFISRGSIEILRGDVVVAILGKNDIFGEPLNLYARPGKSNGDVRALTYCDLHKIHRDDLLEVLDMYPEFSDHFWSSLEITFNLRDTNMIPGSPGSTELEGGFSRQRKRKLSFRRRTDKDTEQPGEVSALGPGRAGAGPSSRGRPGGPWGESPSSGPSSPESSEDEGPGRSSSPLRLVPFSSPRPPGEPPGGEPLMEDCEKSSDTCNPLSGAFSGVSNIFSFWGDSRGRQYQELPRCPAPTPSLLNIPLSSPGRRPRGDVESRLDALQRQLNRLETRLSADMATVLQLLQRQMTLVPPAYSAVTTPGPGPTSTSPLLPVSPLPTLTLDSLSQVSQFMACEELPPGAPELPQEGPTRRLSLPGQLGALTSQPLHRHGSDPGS

[4] = target: T2, Voltage-gated inwardly rectifying potassium channel KCNH2; test: Inhibition of human ERG expressed in CHO cells assessed as channel current by Q-patch electrophysiological assay; type: cell-based
Liver = test: Drug level in oral-dosed Sprague-Dawley rat liver treated with (2S)-1-(4-(6-(4-chlorophenyl)-4-oxopyrrolo[1,2-f][1,2,4]triazin-3(4H)-yl)-2-methoxyphenoxy)propan-2-yl 2-amino-3-methylbutanoate; type: ADME, tissue-based; settings: in vivo
Brain [5] = test: Drug concentration in Sprague-Dawley rat brain assessed as (S)-6-(4-chlorophenyl)-3-(4-(3-(ethylsulfonyl)-2-hydroxypropoxy)-3-methoxyphenyl)pyrrolo[1,2-f][1,2,4]triazin-4(3H)-one level at 10 mg/kg, po qd at 8 hrs; type: ADME, organism-based; settings: in vivo, read-out: Drug uptake
Plasma [6] = test: Plasma concentration in Sprague-Dawley rat assessed as (S)-6-(4-chlorophenyl)-3-(4-(3-(ethylsulfonyl)-2-hydroxypropoxy)-3-methoxyphenyl)pyrrolo[1,2-f][1,2,4]triazin-4(3H)-one level at 10 mg/kg, po qd at 8 hrs; type: ADME, organism-based; settings: in vivo
Nucleic Acid [7] = test: Ratio of drug level in Sprague-Dawley rat brain to plasma assessed as (S)-6-(4-chlorophenyl)-3-(4-(3-(ethylsulfonyl)-2-hydroxypropoxy)-3-methoxyphenyl)pyrrolo[1,2-f][1,2,4]triazin-4(3H)-one level at 10 mg/kg, po qd; type: ADME, organism-based
Rattus norvegicus = test: Drug level in oral-dosed Sprague-Dawley rat treated with 1-(4-(6-(4-chlorophenyl)-4-oxothieno[3,2-d]pyrimidin-3(4H)-yl)-2-methoxyphenoxy)-2-methylpropan-2-yl 2-aminoacetate; type: ADME, organism-based; settings: in vivo
Plasma [8] = test: Plasma concentration in Sprague-Dawley rat assessed as 6-(4-chlorophenyl)-3-(4-((3,3-difluoro-1-hydroxycyclobutyl)methoxy)-3-methoxyphenyl)pyrrolo[1,2-f][1,2,4]triazin-4(3H)-one level at 10 mg/kg, po qd at 8 hrs; type: ADME, organism-based; settings: in vivo
Brain [9] = test: Drug concentration in Sprague-Dawley rat brain assessed as 6-(4-chlorophenyl)-3-(4-((3,3-difluoro-1-hydroxycyclobutyl)methoxy)-3-methoxyphenyl)pyrrolo[1,2-f][1,2,4]triazin-4(3H)-one level at 10 mg/kg, po qd at 8 hrs; type: ADME, organism-based; settings: in vivo, read-out: Drug uptake
Nucleic Acid [10] = test: Ratio of drug level in Sprague-Dawley rat brain to plasma assessed as 6-(4-chlorophenyl)-3-(4-((3,3-difluoro-1-hydroxycyclobutyl)methoxy)-3-methoxyphenyl)pyrrolo[1,2-f][1,2,4]triazin-4(3H)-one level at 10 mg/kg, po qd; type: ADME, organism-based
[11] = target: T1, Melanin-concentrating hormone receptor 1; test: Antagonist activity at human MCHR1 expressed in HEK293 cells assessed as inhibition of MCH-induced Ca2+ influx for 120 mins by FLIPR assay; type: functional, cell-based
hERG (KCNH2) = hERG (KCNH2) (Homo sapiens, UniProt Q12809); test: Inhibition of human ERG at 1 uM by flux assay
Sequence of hERG (KCNH2) (Q12809 whole entry): as above

Plasma [12] = test: Plasma concentration in Sprague-Dawley rat assessed as (R)-6-(4-chlorophenyl)-3-(4-(3-hydroxypyrrolidin-1-yl)-3-methoxyphenyl)pyrrolo[1,2-f][1,2,4]triazin-4(3H)-one level at 10 mg/kg, po qd at 8 hrs; type: ADME, organism-based; settings: in vivo
Nucleic Acid [13] = test: Ratio of drug level in Sprague-Dawley rat brain to plasma assessed as (R)-6-(4-chlorophenyl)-3-(4-(3-hydroxypyrrolidin-1-yl)-3-methoxyphenyl)pyrrolo[1,2-f][1,2,4]triazin-4(3H)-one level at 10 mg/kg, po qd; type: ADME, organism-based
Brain [14] = test: Drug concentration in Sprague-Dawley rat brain assessed as (R)-6-(4-chlorophenyl)-3-(4-(3-hydroxypyrrolidin-1-yl)-3-methoxyphenyl)pyrrolo[1,2-f][1,2,4]triazin-4(3H)-one level at 10 mg/kg, po qd at 8 hrs; type: ADME, organism-based; settings: in vivo, read-out: Drug uptake
Plasma [15] = test: Plasma concentration in Sprague-Dawley rat assessed as (R)-6-(5-chloropyridin-2-yl)-3-(4-(2-cyclopropyl-2-hydroxyethoxy)-3-methoxyphenyl)pyrrolo[1,2-f][1,2,4]triazin-4(3H)-one level at 10 mg/kg, po qd at 8 hrs; type: ADME, organism-based; settings: in vivo
Brain [16] = test: Drug concentration in Sprague-Dawley rat brain assessed as (R)-6-(5-chloropyridin-2-yl)-3-(4-(2-cyclopropyl-2-hydroxyethoxy)-3-methoxyphenyl)pyrrolo[1,2-f][1,2,4]triazin-4(3H)-one level at 10 mg/kg, po qd at 8 hrs; type: ADME, organism-based; settings: in vivo, read-out: Drug uptake
Nucleic Acid [17] = test: Ratio of drug level in Sprague-Dawley rat brain to plasma assessed as (R)-6-(5-chloropyridin-2-yl)-3-(4-(2-cyclopropyl-2-hydroxyethoxy)-3-methoxyphenyl)pyrrolo[1,2-f][1,2,4]triazin-4(3H)-one level at 10 mg/kg, po qd; type: ADME, organism-based
Nucleic Acid [18] = test: Ratio of drug level in Sprague-Dawley rat brain to plasma assessed as 6-(5-chloropyridin-2-yl)-3-(4-(2-cyclopropyl-2-hydroxyethoxy)-3-methoxyphenyl)pyrrolo[1,2-f][1,2,4]triazin-4(3H)-one level at 10 mg/kg, po qd; type: ADME, organism-based
Brain [19] = test: Drug concentration in Sprague-Dawley rat brain assessed as 6-(5-chloropyridin-2-yl)-3-(4-(2-cyclopropyl-2-hydroxyethoxy)-3-methoxyphenyl)pyrrolo[1,2-f][1,2,4]triazin-4(3H)-one level at 10 mg/kg, po qd at 8 hrs; type: ADME, organism-based; settings: in vivo, read-out: Drug uptake
Plasma [20] = test: Plasma concentration in Sprague-Dawley rat assessed as 6-(5-chloropyridin-2-yl)-3-(4-(2-cyclopropyl-2-hydroxyethoxy)-3-methoxyphenyl)pyrrolo[1,2-f][1,2,4]triazin-4(3H)-one level at 10 mg/kg, po qd at 8 hrs; type: ADME, organism-based; settings: in vivo
Plasma [21] = test: Plasma concentration in Sprague-Dawley rat assessed as 6-(4-chlorophenyl)-3-(4-((3S,4R)-3,4-dihydroxypyrrolidin-1-yl)-3-methoxyphenyl)pyrrolo[1,2-f][1,2,4]triazin-4(3H)-one level at 10 mg/kg, po qd at 8 hrs; type: ADME, organism-based; settings: in vivo
Nucleic Acid [22] = test: Ratio of drug level in Sprague-Dawley rat brain to plasma assessed as 6-(4-chlorophenyl)-3-(4-((3S,4R)-3,4-dihydroxypyrrolidin-1-yl)-3-methoxyphenyl)pyrrolo[1,2-f][1,2,4]triazin-4(3H)-one level at 10 mg/kg, po qd; type: ADME, organism-based
Brain [23] = test: Drug concentration in Sprague-Dawley rat brain assessed as 6-(4-chlorophenyl)-3-(4-((3S,4R)-3,4-dihydroxypyrrolidin-1-yl)-3-methoxyphenyl)pyrrolo[1,2-f][1,2,4]triazin-4(3H)-one level at 10 mg/kg, po qd at 8 hrs; type: ADME, organism-based; settings: in vivo, read-out: Drug uptake

Sequence of Melanin-concentrating hormone receptor 1 (Rattus norvegicus, UniProt P97639) (P97639 whole entry): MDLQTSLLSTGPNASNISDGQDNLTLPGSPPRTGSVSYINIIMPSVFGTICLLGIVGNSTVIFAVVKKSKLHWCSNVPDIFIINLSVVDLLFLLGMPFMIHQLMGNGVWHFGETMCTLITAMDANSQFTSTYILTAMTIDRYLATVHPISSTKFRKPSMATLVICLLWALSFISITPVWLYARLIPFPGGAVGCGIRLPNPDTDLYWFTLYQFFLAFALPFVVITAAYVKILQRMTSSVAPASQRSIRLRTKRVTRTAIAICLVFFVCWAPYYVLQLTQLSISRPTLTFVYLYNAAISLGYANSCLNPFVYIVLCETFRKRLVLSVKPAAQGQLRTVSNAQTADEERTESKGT

Structure (SMILES)	Ki [1]	Ki [2]	further results
COc1cc(-n2cnn3cc(-c4ccc(Cl)cc4)cc3c2=O)ccc1OCC(C)O (centres undefined)	1.4 nM		
COc1cc(-n2cnn3cc(-c4ccc(Cl)cc4)nc3c2=O)ccc1OCCN1CCCC1	2.6 nM	4.4 nM	
COc1ccc(-n2cnn3cc(-c4ccc(Cl)cc4)nc3c2=O)cc1OC	87 nM	76 nM	
COc1ccc(-n2cnn3nc(-c4ccc(Cl)cc4)cc3c2=O)cc1OC	106 nM	86 nM	
O=c1c2cc(-c3ccc(Cl)cc3)cn2ncn1-c1ccc(N2CCC(O)CC2)nc1	18 nM	12 nM	IC50 [3]: > 80000 nM; IC50 [4]: > 10000 nM
COc1cc(-n2cnn3cc(-c4ccc(Cl)cc4)cc3c2=O)ccc1OCCN1CCCC1	0.4 nM	0.5 nM	IC50 [3]: 5500 nM
COc1cc(-n2cnn3cc(-c4ccc(Cl)cc4)cc3c2=O)ccc1OCC1(O)CC(F)(F)C1	3.8 nM	3.4 nM	
COc1cc(-n2cnn3nc(-c4ccc(Cl)cc4)cc3c2=O)ccc1OCC(O)C1CC1 (centres undefined)	13 nM	13 nM	
O=c1c2cc(-c3ccc(Cl)cc3)cn2ncn1-c1ccc(N2CC(O)C2)nc1	14 nM	15 nM	IC50 [3]: 3300 nM
COc1cc(-n2cnn3cc(-c4ccc(Cl)cc4)cc3c2=O)ccc1OCC(O)CO (centres undefined)			Drug metabolism (Liver): metabolite_detected
COc1cc(-n2cnn3cc(-c4ccc(Cl)cn4)cc3c2=O)ccc1OCC1(O)CC(F)(F)C1	6.5 nM	6.5 nM	
CNC1CCN(c2ccc(-n3cnn4cc(-c5ccc(Cl)cc5)cc4c3=O)cn2)C1 (centres undefined)	0.3 nM	0.4 nM	
COc1cc(-n2cnn3cc(-c4ccc(Cl)cc4)cc3c2=O)ccc1N1CC[C@@H](O)C1	4.7 nM	4.8 nM	
O=c1c2cc(-c3ccc(Cl)cc3)cn2ncn1-c1ccc(N2CCC(N3CC(O)C3)C2)nc1 (centres undefined)	1.4 nM	0.8 nM	IC50 [3]: 2000 nM
CCS(=O)(=O)C[C@H](COc1ccc(-n2cnn3cc(-c4ccc(Cl)cc4)cc3c2=O)cc1OC)OC(=O)CN			concentration (Brain [5]): 175 nM; concentration (Plasma [6]): 1830 nM; BPR (Nucleic Acid [7]): 0.1
COc1cc(-n2cnn3cc(-c4ccc(Cl)cn4)cc3c2=O)ccc1OC[C@H](O)C1CC1	12 nM	6.5 nM	
O=c1c2cc(-c3ccc(Cl)cn3)cn2ncn1-c1ccc(N2CC[C@@H](O)C2)nc1	54 nM	124 nM	
COc1cc(-n2cnn3cc(-c4ncc(Cl)cn4)cc3c2=O)ccc1OCC(C)(C)O	15 nM	13 nM	
COc1cc(-n2cnc3cc(-c4ccc(Cl)cc4)sc3c2=O)ccc1OCC(C)(O)CO (centres undefined)			Drug metabolism (Rattus norvegicus): metabolite_detected
COc1cc(-n2cnn3cc(-c4ccc(Cl)cc4)cc3c2=O)ccc1OCC1(OC(=O)CN)CC(F)(F)C1			concentration (Plasma [8]): 477 nM; concentration (Brain [9]): 2380 nM; BPR (Nucleic Acid [10]): 0.6

Structure (SMILES)	Ki [1]	Ki [2]	further results
COc1ccc(-n2cnn3cc(-c4ccc(Cl)cc4)cc3c2=O)cc1OC	8 nM	21 nM	
COc1cc(-n2cnn3cc(-c4ccc(Cl)cc4)cc3c2=O)ccc1N1C[C@@H](O)[C@@H](O)C1	2.3 nM	3.1 nM	IC50 [11]: 5000 nM
O=c1c2cc(-c3ccc(Cl)cc3)cn2ncn1-c1ccc(N2CC[C@@H](O)C2)nc1	5.5 nM	5.3 nM	inhibition at 1 µM (hERG (KCNH2)): 26%
COc1cc(-n2cnn3cc(-c4ccc(Cl)cc4)cc3c2=O)ccc1N1CC[C@@H](OC(=O)[C@@H](N)C(C)C)C1			concentration (Plasma [12]): 339 nM; BPR (Nucleic Acid [13]): 2.9; concentration (Brain [14]): 966 nM
COc1cc(-n2cnn3cc(-c4ncc(Cl)cn4)cc3c2=O)ccc1OCC(O)C1CC1 (centres undefined)	15 nM	17 nM	
CCS(=O)(=O)C[C@@H](O)COc1ccc(-n2cnn3cc(-c4ncc(Cl)cn4)cc3c2=O)cc1OC	23 nM	28 nM	
COc1cc(-n2cnn3cc(-c4ccc(Cl)cn4)cc3c2=O)ccc1OC[C@H](OC(=O)CN)C1CC1			concentration (Plasma [15]): 7450 nM; concentration (Brain [16]): 1150 nM; BPR (Nucleic Acid [17]): 0.2
COc1cc(-n2cnn3cc(-c4ncc(Cl)cn4)cc3c2=O)ccc1OCC1(O)CC(F)(F)C1	7.9 nM	9 nM	
COc1cc(-n2cnn3cc(-c4ccc(Cl)cn4)cc3c2=O)ccc1N1CC[C@@H](O)C1	9.6 nM	9.1 nM	
COc1cc(-n2cnn3cc(-c4ccc(Cl)cn4)cc3c2=O)ccc1OCC(OC(=O)[C@@H](N)C(C)C)C1CC1 (some centres undefined)			BPR (Nucleic Acid [18]): 0.2; concentration (Brain [19]): 2040 nM; concentration (Plasma [20]): 10200 nM
COc1cc(-n2cnn3cc(-c4ccc(Cl)cc4)cc3c2=O)ccc1N1C[C@H](OC(=O)[C@@H](N)C(C)C)[C@H](OC(=O)[C@@H](N)C(C)C)C1			concentration (Plasma [21]): 272 nM; BPR (Nucleic Acid [22]): 0.77; concentration (Brain [23]): 210 nM
COc1cc(-n2cnn3cc(-c4ccc(Cl)cn4)cc3c2=O)ccc1OCC(O)C1CC1 (centres undefined)	12 nM	13 nM	
COc1cc(-n2cnn3cc(-c4ccc(Cl)cc4)cc3c2=O)ccc1OCC(O)C(=O)O (centres undefined)			Drug metabolism (Liver): metabolite_detected
COc1cc(-n2cnc3cc(-c4ccc(Cl)cc4)sc3c2=O)ccc1OCC(C)(O)C(=O)O (centres undefined)			Drug metabolism (Rattus norvegicus): metabolite_detected
CCS(=O)(=O)C[C@@H](O)COc1ccc(-n2cnn3cc(-c4ccc(Cl)cc4)cc3c2=O)cc1OC	1.5 nM	2.4 nM	
CCS(=O)(=O)C[C@@H](O)COc1ccc(-n2cnn3cc(-c4ccc(Cl)cn4)cc3c2=O)cc1OC	8.7 nM	15 nM	
COc1cc(-n2cnn3cc(-c4ccc(Cl)cc4)cc3c2=O)ccc1OCC(C)(C)O	1.8 nM	2.3 nM	IC50 [11]: 44 nM
COc1cc(-n2cnn3nc(-c4ccc(Cl)cc4)cc3c2=O)ccc1OCCN1CCCC1	0.5 nM	0.7 nM	
COc1cc(-n2cnn3cc(-c4ccc(Cl)cc4)nc3c2=O)ccc1OCC(O)C1CC1 (centres undefined)	18 nM	26 nM	
COc1cc(-n2cnn3cc(-c4ccc(Cl)cc4)cc3c2=O)ccc1OCC(O)C1CC1 (centres undefined)		3.5 nM	IC50 [11]: 300 nM
